Source: US20230398220A1, “SIRNA-NANOBOWL-MEDIATED INTERVENTION OF COVID-19” (THE REGENTS OF THE UNIVERSITY OF CALIFORNIA, priority 2020, published 2023)

System: HEK 298 cell line
Experiment: MTT viability of HEK cells treated with nanobowls pre-loaded with siRNA and dexamethasone
Conditions: normalized to untreated control

C[C@@H]1C[C@H]2[C@@H]3CCC4=CC(=O)C=C[C@]4(C)[C@@]3(F)[C@@H](O)C[C@]2(C)[C@@]1(O)C(=O)CO [dexamethasone]
cell viability (MTT): cell viability decreased
